Measurements from patent US10815276B2, “Cell penetrating peptides and methods of making and using thereof” (Entrada Therapeutics, Inc., priority 2014, dated 2020).
Like-named read-outs stand apart in the source and are kept apart here. Starred links: 1 amine or outer side, 2 acyl side, 3 side chain; linkers in the order of their positions; H or OH if unused. Positions of bridges follow the written chain, without caps; N, C: chain ends. Non-standard residues stand in square brackets, D forms with d. Residues, ends and D or L forms follow the SMILES beside them. Groups on a side chain read outwards from the residue. No end group written: not given here. *: point of attachment. Ala(7-OPO3H2-coumarin-4-yl) = N[C@@H](Cc1cc(=O)oc2cc(OP(=O)(O)O)ccc12)C(=O)O; RhodamineB = CCN(CC)c1ccc2c(-c3ccccc3C(=O)*)c3ccc(=[N+](CC)CC)cc-3oc2c1; Trimesoyl = O=C(c1cc(C(=O)[*:2])cc(C(=O)[*:3])c1)[*:1]; d(pT) = C[C@H](OP(=O)(O)O)[C@@H](N)C(=O)O; 2Nal = N[C@@H](Cc1ccc2ccccc2c1)C(=O)O; Pip = O=C(O)[C@@H]1CCCCN1; Dap = NC[C@H](N)C(=O)O; AEEA = NCCOCCOCC(=O)O; Sar = CNCC(=O)O

Legend:
Pin1 [1] = biological target: T1, Pin1 (Homo sapiens, UniProt Q13526, S16A/Y23A); assay: Fluorescence anisotropy binding to Pin1; details: FITC-labeled peptide, FA analysis
T1 construct: The full-length human S16A/Y23A mutant Pin1 was expressed and purified from E. coli; made in house
Protocol: The gene coding for the catalytic domain of PTP1B (amino acids 1-321) was amplified by the polymerase chain reaction using PTP1B cDNA as template and oligonucleotides 5′-[…]-3′ and 5′-[…]-3′ as primers. […] Expression and purification of the ybbR-tagged PTP1B were carried out as previously described (Ren, L et al. Biochemistry 2011, 50, 2339-2356). […] The reaction mixture was passed through a G-25 fast-desalting column equilibrated in 30 mM HEPES, pH 7.4, 150 mM NaCl to remove any free dye molecules. The full-length human S16A/Y23A mutant Pin1 was expressed and purified from E. coli as previously described (Liu, T et al. J. Med. Chem. 2010, 53, 2494-2501).
FA experiments were carried out by incubating 100 nM FITC-labeled peptide with varying concentrations of protein in 20 mM HEPES (pH 7.4), 150 mM NaCl, 2 mM magnesium acetate, and 0.1% bovine serum albumin (BSA) for 2 h at room temperature. The FA values were measured on a Molecular Devices Spectramax M5 plate reader, with excitation and emission wavelengths at 485 and 525 nm, respectively. Equilibrium dissociation constants (KD) were determined by plotting the FA values as a function of protein concentration and fitting the curve to the following equation:
[formula] where Y is the FA value at a given protein concentration x, L is the peptide concentration, Qb/Qf is the correction factor for fluorophore-protein interaction, Amax is the maximum FA value when all of the peptides are bound to protein, while Amin is the minimum FA value when all of the peptides are free. FA competition assay was performed by incubating 100 nM FITC-labeled Pin1 inhibitor 5 with 1 μM Pin1, followed by the addition of 0-5 μM unlabeled inhibitor. The FA values were measured similarly on a pate reader. IC50 values were obtained by plotting the FA values against the competitor concentration and curve fitting using the four-parameter dose-response inhibition equation (Prism 6, GraphPad).

HeLa cells [2] = assay: MTT proliferation assay with Pin1 inhibitors; type: cell-based, human; details: MTT
Protocol: HeLa cells (100 μL/each well, 5×10^4 cells/mL) were seeded in a 96-well culture plate and allowed to grow overnight in DMEM supplemented with 10% FBS. […] After that, 10 μL of a MTT stock solution (5 mg/mL) was added into each well. The plate was incubated at 37° C. for 4 h and 100 μL of SDS-HCl solubilizing solution was added into each well, followed by thorough mixing. The plate was incubated at 37° C. overnight and the absorbance of the formazan product was measured at 570 nm on a Molecular Devices Spectramax M5 plate reader. Each experiment was performed in triplicates and the cells untreated with peptide were used as control.

HeLa cells [3] = assay: Cellular uptake by flow cytometry; type: cell-based, human; details: 5 μM FITC-labeled peptide, 2 h
Protocol: The cellular uptake efficiency of peptide 37, peptide 1, and a previously reported membrane-impermeable monocyclic Pin1 inhibitor (Table 18, peptide 46) was assessed by incubating HeLa cells with the FITC-labeled peptides (5 μM) for 2 h and quantifying the total intracellular fluorescence by flow cytometry analysis. […] By contrast, cells treated with peptides 1 and 37 gave MFI values of 2562 and 8792, respectively. Thus, peptide 37 is internalized by HeLa cells ˜4-fold more efficiently than peptide 1. Presumably, the negative charged phosphate group of peptide 1 interacted electrostatically with the positively charged CPP motif and reduced the cellular uptake efficiency of the latter.

HeLa cells [4] = details: MTT
Description: The effect of peptide 37 on the growth of HeLa cells was examined by using the MTT cell viability assay.

Pin1 [5] = biological target: T1, Pin1; assay: Pin1 binding by FA (FITC-labeled peptides)
HEK293 cells = assay: Live-cell confocal microscopy of internalization; type: cell-based, human; details: for CAP fluorescence in cells (confocal): 5 μM pCAP peptide, 60 min; for Intracellular fluorescence of rhodamine B-labeled peptide: 5 μM peptide, 2 h
Protocol: To examine the internalization of rhodamine-labeled peptides, 5×10^4 HEK293 cells were plated in a 35 mm glass-bottomed microwell dish (MatTek). […] The cells were gently washed with DPBS twice and imaged on a Visitech Infinity 3 Hawk 2D-array live cell imaging confocal microscope. To detect the internalization of pCAP-containing peptides, HEK293 cells were similarly plated and incubated with the peptide solution (5 μM) at 37° C. for 60 min. After removal of the medium, the cells were gently washed with DPBS containing sodium pervanadate (1 mM) twice and incubated for 10 min in DPBS containing 5 μM nuclear staining dye DRAQS. The resulting cells were washed with DPBS twice and imaged on a spinning disk confocal microscope (UltraView Vox CSUX1 system). To monitor GFP internalization, 5×10^4 HEK293 cells were seeded in a 35 mm glass-bottomed microwell dish and cultured overnight. Cells were treated with cFΦR4-S-S-GFP (1 μM) at 37° C. for 2 h. After removal of the medium, the cells were incubated in DPBS containing 5 μM DRAQS for 10 min. The cells were washed with DPBS twice and imaged on a Visitech Infinity 3 Hawk 2D-array live cell imaging confocal microscope.

HeLa cells [6] = assay: Cytoplasmic delivery of pCAP-containing peptides, flow cytometry; details: 10 μM peptide; for Mean fluorescence intensity (MFI) of CAP: 2 h
HeLa cells [7] = assay: Western blot of PML protein level; type: cell-based, human; details: 0.2-5 μM
Protocol: FIGS. 38A, 38B, 38C, and 38D display cellular activity of peptide 37. (FIG. 38A) Cellular uptake of peptides 1, 37, and 46 (5 μM) by HeLa cells as analyzed by flow cytometry. MFI, mean fluorescence intensity; none, untreated cells (no peptide). (FIG. 38B) Anti-proliferative effect of peptides 37, 46, and 47 on HeLa cells as measured by MTT assay. (FIG. 38C) Western blots showing the effect of peptides 1, 37 and 47 on the protein level of PML in HeLa cells. β-Actin was used as loading control. (FIG. 38D) Quantification of western blot results from (FIG. 38C). Data reported were after background subtraction and represent the mean±SD from 3 independent experiments.
Finally, to ascertain that Pin1 is the molecular target of peptide 37 in vivo, the intracellular protein level of a well-established Pin1 substrate, […] (PML), was examined by western blot analysis. Pin1 negatively regulates the PML level in a phosphorylation-dependent manner and inhibition of Pin1 activity is expected to stabilize PML and increase its intracellular level. […] The effect was already significant at 0.2 μM inhibitor (1.8-fold increase in the PML level) and plateaued at ˜1 μM (3.3-fold increase). Again, bicyclic peptide 47 had no effect under the same conditions, while peptide 1 (the positive control, at 5 μM) increased the PML level by 3.1-fold.

C[C@@H]1NC(=O)[C@H](CCCNC(=N)N)NC(=O)[C@H](Cc2ccc3ccccc3c2)NC(=O)[C@@H]2CCCCN2C(=O)[C@@H](CC(=O)O)NC(=O)CN(C)C(=O)[C@@H]2CCCN2C(=O)c2cc3cc(c2)C(=O)NC[C@@H](C(=O)N[C@@H](CCCCN)C(N)=O)NC(=O)[C@H](CCCNC(=N)N)NC(=O)[C@H](CCCNC(=N)N)NC(=O)[C@H](CCCNC(=N)N)NC(=O)[C@H](CCCNC(=N)N)NC(=O)[C@H](Cc2ccc4ccccc4c2)NC(=O)[C@H](Cc2ccccc2)NC(=O)[C@H](CNC3=O)NC1=O [Peptide 9, bicyclo[Tm-(Pro-Sar-D-Asp-Pip-Nal-Arg-Ala)-Dap-(Phe-Nal-Arg-Arg-Arg-Arg-Dap)]-Lys] (P[Sar][dD][Pip][2Nal]RA[Dap]F[2Nal]RRRR[Dap]K-NH2; linker N-8-15 via Trimesoyl; C-terminus assumed)
KD (Pin1 [1]): abolished Pin1 inhibitory activity | Effect on cell growth (HeLa cells [2]): no effect

C[C@H](OP(=O)(O)O)[C@H]1NC(=O)CN(C)C(=O)[C@@H](C)NC(=O)[C@H](CCC(=O)N[C@@H](CCCCN)C(N)=O)NC(=O)[C@H](Cc2ccc(O)cc2)NC(=O)[C@H](Cc2ccc3ccccc3c2)NC(=O)[C@@H]2CCCCN2C1=O [Peptide 46, cyclo(D-Ala-Sar-D-pThr-Pip-Nal-Tyr-Gln)-Lys, reference compound] (cyclo([dA][Sar][d(pT)][Pip][2Nal]YE([Lys-NH2])); ring closure inferred)
Mean fluorescence intensity (MFI) (HeLa cells [3]): 193 | Effect on cell growth (HeLa cells [4]): neither peptide 46 nor 47 had any effect | Kd (Pin1 [5]): 240 ± 40 nM | Effect on cell growth (HeLa cells [2]): no effect

Ac-DE(pCap)LI-NH2 (Ac-DE[Ala(7-OPO3H2-coumarin-4-yl)]LI-NH2; SMILES CC[C@H](C)[C@H](NC(=O)[C@H](CC(C)C)NC(=O)[C@H](Cc1cc(=O)oc2cc(OP(=O)(O)O)ccc12)NC(=O)[C@H](CCC(=O)O)NC(=O)[C@H](CC(=O)O)NC(C)=O)C(N)=O) [untagged PCP, reference compound]
CAP fluorescence in cells (confocal) (HEK293 cells): failed to enter cells | Mean fluorescence intensity (MFI) of CAP (HeLa cells [6]): 30 AU

RKKRRQRRR-miniPEG-DE(pCAP)LI (RKKRRQRRR[AEEA]DE[Ala(7-OPO3H2-coumarin-4-yl)]LI) [Tat-PCP, reference compound]
CAP fluorescence in cells (confocal) (HEK293 cells): weak fluorescence | Mean fluorescence intensity (MFI) of CAP (HeLa cells [6]): 290 AU

RQIKIWFQNRRMKWKK-miniPEG-DE(pCAP)LI (RQIKIWFQNRRMKWKKXDEXLI; miniPEG linker; pCAP residue; (17)..(17) 8-amino-3,6-dioxaoctanoic acid; (20)..(20) phosphocoumaryl amino propionic acid) [Antp-PCP, reference compound]
CAP fluorescence in cells (confocal) (HEK293 cells): weak fluorescence | Mean fluorescence intensity (MFI) of CAP (HeLa cells [6]): 400 AU

RRRRRRRRR-miniPEG-DE(pCAP)LI (RRRRRRRRRXDEXLI; miniPEG linker, pCAP residue; (10)..(10) 8-amino-3,6-dioxaoctanoic acid; (13)..(13) phosphocoumaryl amino propionic acid) [Peptide R9-PCP, reference compound]
CAP fluorescence in cells (confocal) (HEK293 cells): weak fluorescence | Mean fluorescence intensity (MFI) of CAP (HeLa cells [6]): 960 AU

bicyclo[Tm-(D-Ala-Sar-D-Thr-D-Ala-Nal-Arg-Ala-D-Ala)-Dap-(Phe-Nal-Arg-Arg-Arg-Arg-Dap)]-Lys [Peptide 47]
Effect on cell growth (HeLa cells [4]): neither peptide 46 nor 47 had any effect | KD (μM) (Pin1 [5]; FITC-labeled peptide, FA): No | Effect on the PML level (HeLa cells [7]): no effect

cyclo(FΦRRRRQ)-AAAAA-K(Rho) (cyclo(F[2Nal]RRRRQAAAAAK(RhodamineB)); not fully specified (C-terminus, bridges); printed as cyclo(FΦRRRRQ)-AAAAA-K(Rho)) [cFΦR4-A5]
Intracellular fluorescence of rhodamine B-labeled peptide (HEK293 cells): both punctuate and diffuse fluorescence

cyclo(FΦRRRRQ)-RRRRR-K(Rho) (cyclo(F[2Nal]RRRRQRRRRRK(RhodamineB)); not fully specified (C-terminus, bridges); printed as cyclo(FΦRRRRQ)-RRRRR-K(Rho)) [cFΦR4-R5]
Intracellular fluorescence of rhodamine B-labeled peptide (HEK293 cells): both punctuate and diffuse fluorescence

cyclo(FΦRRRRQ)-miniPEG-DE(pCAP)LI (cyclo(F[2Nal]RRRRQ[AEEA]DE[Ala(7-OPO3H2-coumarin-4-yl)]LI); not fully specified (C-terminus, bridges); printed as cyclo(FΦRRRRQ)-miniPEG-DE(pCAP)LI) [cFΦR4-PCP]
CAP fluorescence in cells (confocal) (HEK293 cells): diffuse blue fluorescence throughout the cell | Mean fluorescence intensity (MFI) of CAP (HeLa cells [6]): 3510 AU | MFI of CAP in the presence of sodium pervanadate (HeLa cells [6]; PTP inhibitor sodium pervanadate): 70 AU
